Assay results from PubChem BioAssay (NCI).
“And” between values parts separate entries of the source, which are not always exact repeats. Equal entries are not always repeated.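 Cells were grown in 96-well plates and exposed to each compound for 48 hours at five concentrations; endpoints were interpolated linearly between bracketing concentrations, or set to the highest concentration if not reached. The concentration for 50% growth inhibition is given as GI50. TGI: total growth inhibition.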

Key:
Assay in all cases: inhibition of tumour cell growth, NCI panel, 48 h
[1] = test system: SK-MEL-28 melanoma
[2] = test system: U251 CNS
[3] = test system: SW-620 colon
[4] = test system: EKVX NSCLC
[5] = test system: OVCAR-8 ovarian
[6] = test system: OVCAR-3 ovarian
[7] = test system: SR leukemia
[8] = test system: RXF 393 renal
[9] = test system: IGROV1 ovarian
[10] = test system: SK-MEL-2 melanoma

SMILES | TGI [1] | TGI [2] | TGI [3] | TGI [4] | TGI [5] | TGI [6] | TGI [7] | TGI [8] | TGI [9] | TGI [10] | GI50 [1] | GI50 [2] | GI50 [3] | GI50 [4] | GI50 [5] | GI50 [6] | GI50 [10] | GI50 [8] | GI50 [9] | GI50 [7]
COc1ccc(NC(=O)C2=CC(=O)c3ccc(O)cc3C2=O)c(OC)c1 | > 100 µM | > 100 µM | > 100 µM | > 100 µM | > 100 µM | > 100 µM | > 100 µM | > 100 µM | > 100 µM | – | – | – | – | – | – | – | – | – | – | –
O=C(O)c1ccccc1C1c2ccc(Cl)cc2Oc2cc(Cl)ccc21 | > 100 µM | > 100 µM | > 100 µM | > 100 µM | > 100 µM | > 100 µM | – | > 100 µM | > 100 µM | > 100 µM | – | – | – | – | – | – | – | – | – | –
C=C1CCC2(C(C)=O)COC1(C)O2 (stereo unspecified) | > 100 µM | > 100 µM | > 100 µM | > 100 µM | > 100 µM | > 100 µM | – | > 10 µM | > 100 µM | – | – | – | – | – | – | – | – | – | – | –
CC(C)=Cc1cc(C(=O)NCCNC(=O)c2cc(C=C(C)C)nc(NC#N)n2)nc(NC#N)n1 | > 100 µM | > 100 µM | > 100 µM | > 100 µM | > 100 µM | > 100 µM | – | > 100 µM | > 100 µM | – | – | – | – | – | – | – | – | – | – | –
COc1ccc(Nc2ncccc2C(=O)NCc2cn(Cc3cccc(Oc4ccccc4)c3)nn2)c(OC)c1 | > 100 µM | > 100 µM | > 100 µM | > 100 µM | > 100 µM | 4.78 µM | – | > 74.2 µM | > 100 µM | > 100 µM | 5.27 µM | 3.19 µM | 2.35 µM | 9.61 µM | 3.81 µM | 1.11 µM | 5.03 µM | 1.91 µM | 5.18 µM | –
O=C1C(Cl)C(c2ccc([N+](=O)[O-])cc2)N1n1cnc2ccccc2c1=O (stereo unspecified) | > 100 µM | > 100 µM | > 100 µM | 85.6 µM | > 100 µM | > 100 µM | – | 72.1 µM | > 100 µM | > 100 µM | – | – | – | – | – | – | – | – | – | –
O=c1sc(-c2nc3ccccc3[nH]2)c(/N=C/c2ccccc2)n1-c1ccccc1 | > 100 µM | > 100 µM | > 100 µM | > 100 µM | > 100 µM | 65.6 µM | – | > 100 µM | > 100 µM | > 100 µM | – | – | – | – | – | – | – | – | – | –
C/C(CC(=O)Nc1ccc([N+](=O)[O-])cc1)=N\Nc1ccc([N+](=O)[O-])cc1[N+](=O)[O-] | > 100 µM | > 100 µM | > 100 µM | > 100 µM | > 100 µM | > 100 µM | – | > 100 µM | > 100 µM | > 100 µM | – | – | – | – | – | – | – | – | – | –
COc1cc([C@@H]2c3cc4c(cc3[C@@H](NC(=O)c3ccc(OC(C)=O)cc3)C3COC(=O)[C@@H]32)OCO4)cc(OC)c1O (stereo partly specified) | 23.5 µM | 2.75 µM | 15 µM | 21.2 µM | 18.5 µM | 22.3 µM | – | 36.3 µM | 7.77 µM | 16.6 µM | – | – | – | – | – | – | – | – | – | –
COc1cc(/C=C2\CC3C4CCC5=CC(=O)CC[C@]5(C)C4CC[C@]3(C)C2=O)ccc1OCCN1CCCCC1 (stereo partly specified) | 6.13 µM | 11.2 µM | 11.7 µM | 21.8 µM | 62.5 µM | 4.59 µM | – | 10.4 µM | > 100 µM | > 100 µM | 2.59 µM | 3.2 µM | 2.93 µM | 6.3 µM | 15.9 µM | 1.83 µM | 22 µM | 2.58 µM | 11.2 µM | –
c1cnc2nc3n(c2c1)CSC3 | > 100 µM | > 100 µM | > 100 µM | > 100 µM | > 100 µM | > 100 µM | – | > 100 µM | > 100 µM | > 100 µM | – | – | – | – | – | – | – | – | – | –
O=C(O)CCCc1cc2c(s1)-c1cccc3cccc-2c13 | > 100 µM | 53.8 µM | > 100 µM | – | > 100 µM | 49.5 µM | 56.9 µM | – | > 100 µM | 46.3 µM | – | – | – | – | – | – | – | – | – | –
Cn1c(=O)c(-c2c(Cl)cccc2Cl)cc2cnc(Nc3ccc(I)cc3)nc21 | > 73.6 µM | 13.6 µM | 2.49 µM | – | > 100 µM | 0.064 µM | < 0.01 µM | 15 µM | 3.77 µM | > 100 µM | 0.479 µM | 0.305 µM | 0.0188 µM | – | 1.52 µM | 0.0158 µM | 1.52 µM | 2.44 µM | 0.506 µM | < 0.01 µM
C=CCCCC(O)c1ccc(C(O)c2cnc3ccccc3c2)o1 (stereo unspecified) | > 100 µM | > 100 µM | > 100 µM | > 100 µM | 72 µM | > 100 µM | – | > 100 µM | – | > 100 µM | 69.1 µM | 29.9 µM | 38.1 µM | 19.2 µM | 26.7 µM | 88.2 µM | 34.1 µM | 83.2 µM | – | –
CCOC(=O)CP(=S)(S)c1ccccc1 (stereo unspecified) | > 100 µM | > 100 µM | > 100 µM | > 100 µM | > 100 µM | – | > 100 µM | > 100 µM | – | > 100 µM | – | – | – | – | – | – | – | – | – | –
COc1cc(OC)c(/C=C/C(=O)c2c(O)cc(OC)c(C3CCN(C)CC3)c2OC)c(OC)c1 | – | 2.52 µM | 3.02 µM | 2.48 µM | – | 3.32 µM | – | 3.3 µM | – | 3.24 µM | – | 1.27 µM | 1.45 µM | 1.12 µM | – | 1.81 µM | 1.78 µM | 1.76 µM | – | –
COC(=O)c1cc2c(nc1C)-c1ccccc1OS2(=O)=O | – | > 100 µM | > 100 µM | > 100 µM | > 100 µM | > 100 µM | > 100 µM | > 100 µM | > 100 µM | – | – | – | – | – | – | – | – | – | – | –
O=C(NC(Cc1ccccc1)C(=O)CCl)OCc1ccccc1 (stereo unspecified) | 19.3 µM and 25.3 µM | 19.6 µM and 22.8 µM | 5.23 µM and 15.8 µM | – | 15 µM and 17.6 µM | 11.8 µM and 18.7 µM | > 100 µM | 14.2 µM | 13.6 µM and 27.3 µM | 4.89 µM and 22 µM | 5.55 µM | 6.97 µM | 1.91 µM | – | – | 3.65 µM | 1.96 µM | 3.62 µM | 2.98 µM | 2.23 µM
O=C(CC(=O)N1N=C(c2ccccc2)C(N=Nc2ccccc2Cl)C1=O)Nc1ccccc1Cl (stereo unspecified) | > 100 µM | > 100 µM | > 100 µM | > 100 µM | > 100 µM | 81.3 µM | 54.5 µM | – | > 100 µM | > 100 µM | – | – | – | – | – | – | – | – | – | –
